This assay has as its system PKC (mix of isoforms). The experiment in a line: PKC assay (counter screen). The note with it: myelin basic protein substrate, 10 μM ATP; read-out: Counter screens IC50 (μM) PKC. The assay is classed as biochemical. The procedure: Final assay concentrations were as follows: 0.25 mM EGTA, 0.4 mM CaCl, 20 mM Tris pH 7.5, 10 mM MgCl, 1 mM 2-mercaptoethanol, 0.32 mg/ml phosphatidylserine, 0.032 mg/ml diacylglycerol, 10 μM ^33P-ATP, 70 μg/ml MBP, 10 ng/ml PKC, 0.1 mg/ml BSA.
Assays are performed using 96 deep well assay plates. In each assay well 10 μl of solvent control or appropriate inhibitor dilution with 5 μl ^33P-ATP (components #5 and #3) were premixed. […] The liquid in the assay wells was thoroughly mixed and the assay reactions incubated for 20 minutes at room temperature. The reactions were stopped by adding 100 mM EDTA (50 μl) and 100 mM sodium pyrophosphate (50 μl) and mixing. Phosphorylated MBP was collected on PVDF membranes in 96 well filter plates and quantitated by scintillation counting.

Each structure is given as a SMILES string.

In general, IC50 refers to the concentration that gives 50% inhibition.

With `CC(C)(N)c1ccc(-c2nc3ccccc3nc2-c2ccccc2)cc1` [Compound 1, 2-[4-(2-aminoprop-2-yl)phenyl]-3-phenylquinoxaline], the IC50 is greater than 80 µM.
For `Nc1ccc(-c2nc3ccccc3nc2-c2ccc(N)cc2)cc1` [Compound 2, 2,3-bis(4-aminophenyl)-quinoxaline], the IC50 is greater than 80 µM.

The values are drawn from patent US7034026B2, “Inhibitors of Akt activity” (Merck & Co., Inc., priority 2001, dated 2006).
